For assay [1], the system named is blue light model of retinal degeneration in rats. Nature of the assay: The Blue Light Model of retinal degeneration. The assay is classed as in vivo, rat. Conditions: male Sprague Dawley rats, subcutaneous infusion pumps 1 mg/kg/day starting two days before blue light (4 hours, 6100-6500 lux), OCT at 7 days post exposure. The procedure: Pro-drug iso-Butyric acid 3-[(S)-1-(1H-imidazol-4-yl)-ethyl]-2-methyl-benzyl ester is evaluated in the blue light model of retinal degeneration in rats. The drugs is administered continuously with subcutaneous infusion pumps at a dose of 1 mg/kg/day starting two days before blue light exposure. Twenty 4-month old male Sprague Dawley rats (body weight 470-550 g) were used in this study. The animals were exposed to room light on a 12 hour light/12 hour dark cycle before the experiment. All animals were dark adapted overnight (16-20 hours) before blue light. Under the intensity of 6100-6500 lux, rats were exposed to blue light for 4 hours. After the blue light, rats were placed in the dark for another 3 days before returning to normal 12 hour light/12 hour dark. Ocular Coherence Tomography (OCT) measurement was performed at 7 days post blue light exposure.

The test system of another assay is normal DB rabbits. Nature of the assay: Visual Enhancement Model (sweep visual evoked potential acuity). The assay is classed as in vivo, rabbit. Conditions: pigmented (Dutch-Belted) rabbits, intravenous route, 10-30 minutes post-dose, conscious animals, bilateral recordings. As for the experimental part: Spatial sweep visual evoked potential (sVEP) acuity is assessed with PowerDiva software version 1.8. Recordings were made bilaterally in conscious animals.

In the case of `Cc1c(COC(=O)C(C)C)cccc1[C@H](C)c1c[nH]cn1` [Compound 1, iso-Butyric acid 3-[(S)-1-(1H-imidazol-4-yl)-ethyl]-2-methyl-benzyl ester], the “retinal thickness measured by OCT after blue light exposure” value in assay [1] is reported as “significantly reduced the damage caused by blue light”. Moreover, the “Spatial sweep visual evoked potential (sVEP) acuity” value in the assay with normal DB rabbits is “enhances visual acuity”. On to `Brc1c(NC2=NCCN2)ccc2nccnc12` [Brimonidine, reference compound], for which the “retinal thickness measured by OCT after blue light exposure” value in assay [1] is listed as “did not prevent the change in retinal thickness”.

(Values after patent publication US8853251B2, “Ester pro-drugs of [3-(1-(1H-imidazol-4-YL)ethyl)-2-methylphenyl] methanol for treating retinal diseases” (Allergan, Inc., priority 2010, dated 2014).)
